In paper PMC12633732, “Dynamics of release and activity of select neuropeptides post-bloodmeal in the female mosquito, Aedes aegypti” (The Journal of Experimental Biology, 2025):
Like-named read-outs stand apart in the source and are kept apart here. Bridge positions count the residues as written; N and C are the ends. Square brackets hold non-standard residues; d marks the D form. Ends that are not written are not given here. Peptide text beside a SMILES is read from it. pGlu = O=C1CC[C@@H](C(=O)O)N1

What was measured:
AedaeDH31-R = test: Heterologous receptor functional activation bioluminescence assay, AedaeDH31-R; type: cell-based, Aedes aegypti; details: for EC50: CHO-K1-aeq cells transiently expressing AedaeDH31-R (pBudCE4.1 Gα15), aequorin luminescence over 20 s, peptides tested up to 10 µmol l^−1, read-out: EC50 on DH31-R
Source text: (§1) Gene-specific primers were designed to amplify the open reading frame of the AedaeDH31 receptor and Aedaekinin receptor based on previously published sequences [GenBank accession numbers: DH31-R, AAGE02017873 ([Kwon et al., 2012]); kinin-R, AY596453.1 ([Lu et al., 2011]); see Table 1]. The amplified PCR products were purified using a Monarch PCR purification kit (New England Biolabs, Whitby, ON, Canada) and reamplified using modified primers containing restriction sites for subsequent directional cloning in mammalian expression plasmids. Products were A-tailed and cloned into a pGEM-T Easy vector (Promega, Madison, WI, USA) or pCE2 TA/Blunt-Zero vector (GeneBio Systems, Burlington, ON, Canada) and then transformed into 5-alpha high efficiency competent E. coli (New England Biolabs, Whitby, ON, Canada). Base accuracy of purified plasmid DNA miniprep was confirmed by Sanger sequencing (The Centre for Applied Genomics, Sick Kids, Toronto, ON, Canada). The receptor constructs DH31-R and kinin-R were excised using standard restriction enzyme digestion and subcloned into the mammalian expression vectors, pBudCE4.1 Gα15 or pcDNA3.1^+ (Life Technologies, Burlington, ON, Canada), with the former containing a mammalian promiscuous G protein (Gα15), which facilitates coupling of a wide variety of GPCRs to calcium signaling ([Wahedi et al., 2019]). The previously characterized A. aegypti CAPA receptor inserted into pcDNA3.1^+ ([Sajadi et al., 2020]) was also used for transfection of mammalian cells. Plasmid DNA was purified from overnight bacterial cultures using the ZymoPURE II Plasmid Midiprep Kit (Zymo Research, Tustin, CA, USA) following manufacturer guidelines. These three heterologously expressed receptors were used to determine the timing of release and quantify the levels in the haemolymph of CAPA (both CAPA-1 and CAPA-2), DH31 along with kinin neuropeptides in association with blood feeding by adult female mosquitoes.
(§2) Functional activation of the AedaeDH31-R, AedaeCAPA-R, and Aedaekinin-R was assayed using a previously established recombinant Chinese hamster ovary (CHO)-K1 cell line stably expressing aequorin, referred to henceforth as CHO-K1-aeq cells ([Paluzzi et al., 2012a]; [Wahedi and Paluzzi, 2018]). […] Cells were grown and maintained in Dulbecco's modified eagles medium:nutrient F12 (DMEM:F12; 1:1) medium containing 10% heat-inactivated fetal bovine serum (FBS; Wisent, St. Bruno, QC, Canada), 1× antimycotic-antibiotic and 200 µg ml^−1 geneticin (G418 Sulfate). […] Approximately 48 h post-transfection, cells were dislodged from the culture flasks using 5 mmol l^−1 ethylenediaminetetraacetic acid (EDTA; Life Technologies, Burlington, ON, Canada) in DPBS and cells were resuspended in BSA medium (DMEM-F12 medium containing 0.1% bovine serum albumin, 1X antimycotic-antibiotic) at a concentration of 10^6–10^7 cells ml^−1 quantified using a Countess II FL cell counter (Thermo Fisher Scientific, Burlington, ON, Canada). Coelenterazine h (Promega, Madison, WI, USA) was added to the cells to a final concentration of 5 µmol l^−1 and incubated for 3 h, as described previously ([Oryan et al., 2018]) and subsequently, diluted 10-fold in BSA medium and incubated for an additional hour at room temperature. To measure in vivo circulating levels of DH31, kinin and CAPA in female mosquitoes, diluted haemolymph samples collected in 70 µl DPBS droplets (see section 3.2) were loaded in duplicates into 96-well white luminescence plates (Greiner Bio-One, Germany).

Aedaekinin-R = target: T1, Aedaekinin-R (Aedes aegypti, UniProt Q5EY37); test: Heterologous receptor functional activation bioluminescence assay, Aedaekinin-R; type: cell-based
T1 sequence (Q5EY37 1-584): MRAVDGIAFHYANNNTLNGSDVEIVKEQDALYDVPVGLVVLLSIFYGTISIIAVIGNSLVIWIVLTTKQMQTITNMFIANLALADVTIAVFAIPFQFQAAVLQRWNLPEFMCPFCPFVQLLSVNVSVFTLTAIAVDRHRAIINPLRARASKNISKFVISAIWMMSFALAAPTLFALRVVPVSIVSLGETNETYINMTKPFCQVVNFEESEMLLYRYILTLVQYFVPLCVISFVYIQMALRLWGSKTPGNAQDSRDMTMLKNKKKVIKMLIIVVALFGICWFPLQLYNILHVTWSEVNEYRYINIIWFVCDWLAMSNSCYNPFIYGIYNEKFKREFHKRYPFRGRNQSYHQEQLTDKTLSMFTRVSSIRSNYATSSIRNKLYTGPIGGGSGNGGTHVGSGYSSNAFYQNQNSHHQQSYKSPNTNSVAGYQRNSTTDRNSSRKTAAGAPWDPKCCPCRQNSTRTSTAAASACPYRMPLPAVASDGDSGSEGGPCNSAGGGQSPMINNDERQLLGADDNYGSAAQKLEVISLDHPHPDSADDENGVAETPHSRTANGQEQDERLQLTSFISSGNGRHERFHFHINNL
Source text: as §1, §2

[1] = test system: Malpighian tubules (MTs) of adult female A. aegypti; parameters: species or system Aedes aegypti; details: for Effect of single diuretic on fluid secretion: 25 nmol l^−1 DH31, 100 nmol l^−1 5HT, 10 nmol l^−1 DH44, 50 nmol l^−1 CDP, 60 min, Fig. 5A
Protocol: In order to determine fluid secretion rates, modified Ramsay assays were performed as described previously ([Lajevardi et al., 2021]; [Sajadi et al., 2018]). Female adults (4–7 days old) were dissected under physiological Aedes saline adapted from [Petzel et al. (1987)] that contained (in mmol l^−1): 150 NaCl, 25 Hepes, 3.4 KCl, 7.5 NaOH, 1.8 NaHCO3, 1 MgSO4, 1.7 CaCl2 and 5 glucose, and titrated to pH 7.1. Individual MTs were removed and placed in a Sylgard-lined Petri dish containing 20 µl bathing droplets [1:1 mixture of Schneider's Insect Medium (Sigma-Aldrich, Oakville, ON, Canada): Aedes saline], immersed in hydrated mineral oil to prevent evaporation. The proximal end of each tubule was wrapped around a minutien pin to allow for fluid secretion measurements. Dose response analysis for AedaeDH31 was determined by using concentrations ranging from 10^−5 to 10^−12 mol l^−1 on unstimulated MTs. To investigate the effects of collected haemolymph samples on fluid secretion rate, haemolymph samples from both non-blood-fed and blood-fed females were used against unstimulated MTs and allowed to incubate for 60 min before measurement of secreted fluid droplets. To investigate potential additive or synergistic activity, dosages of 25 nmol l^−1 AedaeDH31, 10 nmol l^−1 Rhodnius prolixus DH (CRF-related peptide, DH44), 50 nmol l^−1 CDP, 100 nmol l^−1 5HT, and 1 fmol l^−1 AedaeCAPA-1 were used ([Sajadi et al., 2018], [2020]).

AedaeCAPA-R = target: T2, AedaeCAPA-R (Aedes aegypti, UniProt A0A7D5D2Z2); test: cell-based
T2 sequence (A0A7D5D2Z2 1-712): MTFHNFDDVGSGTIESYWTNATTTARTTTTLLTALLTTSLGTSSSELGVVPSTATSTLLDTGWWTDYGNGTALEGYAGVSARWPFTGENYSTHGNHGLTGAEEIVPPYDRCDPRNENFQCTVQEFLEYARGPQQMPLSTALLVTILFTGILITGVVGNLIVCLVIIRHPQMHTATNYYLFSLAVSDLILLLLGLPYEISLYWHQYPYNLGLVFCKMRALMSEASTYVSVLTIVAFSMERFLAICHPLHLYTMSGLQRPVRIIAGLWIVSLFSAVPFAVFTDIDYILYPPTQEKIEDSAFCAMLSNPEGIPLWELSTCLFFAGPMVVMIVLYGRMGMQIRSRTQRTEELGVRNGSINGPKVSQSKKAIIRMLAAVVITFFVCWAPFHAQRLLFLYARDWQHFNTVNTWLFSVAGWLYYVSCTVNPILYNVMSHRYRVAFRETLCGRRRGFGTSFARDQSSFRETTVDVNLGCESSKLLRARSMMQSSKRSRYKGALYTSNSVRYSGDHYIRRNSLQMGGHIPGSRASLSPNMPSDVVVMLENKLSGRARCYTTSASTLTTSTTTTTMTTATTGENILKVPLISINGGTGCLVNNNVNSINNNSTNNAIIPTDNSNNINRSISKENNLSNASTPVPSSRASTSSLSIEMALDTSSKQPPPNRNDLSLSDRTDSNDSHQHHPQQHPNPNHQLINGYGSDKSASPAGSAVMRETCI
Source text: Gene-specific primers were designed to amplify the open reading frame of the AedaeDH31 receptor and Aedaekinin receptor based on previously published sequences [GenBank accession numbers: DH31-R, AAGE02017873 ([Kwon et al., 2012]); kinin-R, AY596453.1 ([Lu et al., 2011]); see Table 1]. The amplified PCR products were purified using a Monarch PCR purification kit (New England Biolabs, Whitby, ON, Canada) and reamplified using modified primers containing restriction sites for subsequent directional cloning in mammalian expression plasmids. […] These three heterologously expressed receptors were used to determine the timing of release and quantify the levels in the haemolymph of CAPA (both CAPA-1 and CAPA-2), DH31 along with kinin neuropeptides in association with blood feeding by adult female mosquitoes.
Functional activation of the AedaeDH31-R, AedaeCAPA-R, and Aedaekinin-R was assayed using a previously established recombinant Chinese hamster ovary (CHO)-K1 cell line stably expressing aequorin, referred to henceforth as CHO-K1-aeq cells ([Paluzzi et al., 2012a]; [Wahedi and Paluzzi, 2018]). […] To measure in vivo circulating levels of DH31, kinin and CAPA in female mosquitoes, diluted haemolymph samples collected in 70 µl DPBS droplets (see section 3.2) were loaded in duplicates into 96-well white luminescence plates (Greiner Bio-One, Germany).

[2] = CHO-K1-aeq cells transiently expressing Aedaekinin-R (pcDNA3.1+), aequorin luminescence over 20 s, peptides tested up to 10 µmol l^−1, read-out: EC50 on kinin-R

Compound	EC50 (AedaeDH31-R)	EC50 (Aedaekinin-R; [2])	further results
MQRPQGPSLSVANPIEVLRSRLLLEIARRRMKEQDASRVSKNRQYLQQI-NH2 [DH44]	> 10 µM	> 10 µM	Luminescence response over background on AedaeDH31-R (AedaeDH31-R; 10^−6 mol l^−1 dose, Fig. 1B, n=3): no detectable activity; Effect of single diuretic on fluid secretion [1]: significantly increased fluid secretion
CSCC[C@H](NC(=O)[C@H](CC(N)=O)NC(=O)[C@@H]1CSSC[C@H](NC(=O)[C@H](CC(C)C)NC(=O)[C@H](CO)NC(=O)[C@H](CCSC)NC(=O)[C@@H](N)Cc2ccc(O)cc2)C(=O)N[C@@H](Cc2c[nH]cn2)C(=O)N[C@@H](Cc2ccccc2)C(=O)N[C@@H](CCCCN)C(=O)N[C@@H](CC(C)C)C(=O)N1)C(N)=O [CNMa] (H-YMSLCHFKLCNM-NH2; disulfide 5-10 (inferred); N-terminus assumed)	> 10 µM	–	–
C[C@@H]1NC(=O)[C@H](C)NC(=O)[C@@H](NC(=O)CN)CSSC[C@@H](C(=O)N[C@@H](Cc2ccc(O)cc2)C(=O)NCC(=O)NCC(=O)N[C@@H](Cc2c[nH]cn2)C(N)=O)NC(=O)[C@H](C)NC(=O)[C@H](Cc2c[nH]cn2)NC(=O)CNC(=O)[C@H](Cc2ccccc2)NC1=O [CCHa2] (H-GCAAFGHACYGGH-NH2; disulfide 2-9 (inferred); N-terminus assumed)	> 10 µM	–	–
GPTVGLFAFPRV-NH2 [CAPA1]	–	> 10 µM	EC50 (AedaeCAPA-R): 0.00183 µM
CC(C)C[C@@H]1NC(=O)[C@@H](NC(=O)CNC(=O)CNC(=O)[C@@H](N)CCCCN)CSSC[C@@H](C(=O)N[C@@H](Cc2c[nH]c3ccccc23)C(=O)NCC(=O)NCC(=O)N[C@@H](Cc2c[nH]cn2)C(N)=O)NC(=O)[C@H](CO)NC(=O)[C@H](Cc2c[nH]cn2)NC(=O)CNC(=O)[C@H](Cc2ccc(O)cc2)NC(=O)[C@H](CO)NC1=O [CCHa1] (H-KGGCLSYGHSCWGGH-NH2; disulfide 4-11 (inferred); N-terminus assumed)	> 10 µM	–	–
CC(C)C[C@H](NC(=O)[C@@H]1CCC(=O)N1)C(=O)N[C@H](C(=O)N[C@@H](Cc1ccccc1)C(=O)N[C@H](C(=O)N1CCC[C@H]1C(=O)N[C@@H](CO)C(=O)N[C@@H](Cc1c[nH]c2ccccc12)C(N)=O)[C@@H](C)O)[C@@H](C)O [AKH] ([pGlu]LTFTPSW-NH2)	> 10 µM	–	EC50 (Aedaekinin-R): > 10 µM
AGNSGANSGMWFGPRL-NH2 [PK1]	> 10 µM	> 10 µM	–
TVDFGLSRGYSGAQEAKHRMAMAVANFAGGP-NH2 [DH31]	–	> 10 µM	EC50 [1]: 0.0136 µM
PVFFVASRY-NH2 [RYa-1]	> 10 µM	> 10 µM	–
NCCc1c[nH]c2ccc(O)cc12 [5HT, 5-hydroxytryptamine]	–	–	Effect of single diuretic on fluid secretion [1]: significantly increased fluid secretion
CC(C)[C@H](NC(=O)[C@@H]1CCC(=O)N1)C(=O)N[C@H](C(=O)N[C@@H](Cc1ccccc1)C(=O)N[C@@H](CO)C(=O)N[C@@H](CCCNC(=N)N)C(=O)N[C@@H](CC(=O)O)C(=O)N[C@@H](Cc1c[nH]c2ccccc12)C(=O)N[C@@H](CC(N)=O)C(=O)N[C@@H](C)C(N)=O)[C@@H](C)O [ACP] ([pGlu]VTFSRDWNA-NH2)	> 10 µM	–	EC50 (Aedaekinin-R): > 10 µM
NPFHSWG-NH2 [CDP]	–	0.0115 µM	–
